One data set has as its target T1, SIRT2 (Homo sapiens, UniProt Q8IXJ6).
T1 construct: purchased Reaction Biology (Malvern, PA)
T1 sequence (Q8IXJ6 1-389): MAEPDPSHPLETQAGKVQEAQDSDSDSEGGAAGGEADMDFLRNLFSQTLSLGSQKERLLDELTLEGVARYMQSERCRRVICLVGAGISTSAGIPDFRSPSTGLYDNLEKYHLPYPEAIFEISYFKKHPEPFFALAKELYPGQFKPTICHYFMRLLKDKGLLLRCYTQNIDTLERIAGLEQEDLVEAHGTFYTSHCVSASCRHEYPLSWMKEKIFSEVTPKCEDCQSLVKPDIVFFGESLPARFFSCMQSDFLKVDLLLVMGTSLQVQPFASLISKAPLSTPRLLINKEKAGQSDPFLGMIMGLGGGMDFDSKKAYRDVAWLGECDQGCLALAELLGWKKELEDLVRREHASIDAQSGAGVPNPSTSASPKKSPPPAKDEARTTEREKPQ
Briefly: In vitro biochemical activity assay, SIRT2. The settings on record: 10-dose, 3-fold serial dilution; fluorogenic peptide p53 residues 379-382 and NAD.

The subject of data set [1] is RPMI8226 cells. Briefly: Aggresome formation (Proteostat kit, flow cytometry). In kind it is cell-based, human. Particulars: 16 h.
Data set [2] has as its system E.G7-Ova cells. Nature of the data set: Quantitation of […]–MHC-I complex by flow cytometry. In kind it is cell-based, mouse. Background: Flow cytometry measures light scatter and fluorescence of single cells or particles in a stream.
The subject of a further data set is RPMI-8226 cells. Nature of the data set: Myeloma MHC-I immunopeptidome analysis by MS. The class given is cell-based, human.
For data set [3], the system named is proteasome ChT-like activity in RPMI-8226 cells. Nature of the data set: Cell-based high-throughput screen of proteasome ChT-like activity (LLVY-R110). Also noted: species or system human. The settings on record: 3 µmol/L, 21 hours, then LLVY-R110 18 hours.
Data set [4] has as its system RPMI8226 cells. Briefly: Autophagosome formation (Cyto-ID kit, flow cytometry). In kind it is cell-based, human. The settings on record: 16 h.
Data set [5] deals with E.G7-Ova cells. Briefly: Murine MHC-I immunopeptidome analysis by MS. Particulars: 1 µmol/L, 72 hours. In kind it is cell-based, mouse.
The subject of data set [6] is proteasome ChT-like activity in MMCLs. Nature of the data set: Proteasome ChT-like activity in cultured multiple myeloma cells (LLVY-R110). Particulars: RPMI-8226 cells, 1 µmol/L, 72 hours (Fig. 1B, 1D).
The nature of data set [7]: Cell viability, XTT assay. In kind it is cell-based. The settings on record: human, RPMI-8226 multiple myeloma cells, RPMI-8226 cells, XTT (Fig. 1C, 1D), read-out: cell viability maintained. The procedure: Cell viability was determined using the XTT assay ([23]). Briefly, 50,000 cells were added to 96-well plates in a volume of 250 µL in RPMI media that lacked phenol red. Drugs were added at indicated concentrations and plates incubated under standard conditions for 72 hours. XTT sodium salt tetrazolium reagent (Gold Biotechnology, catalog no. X-200) was diluted in PBS (1 mg/mL) containing phenazine methosulfate (PMS, 7.5 µg/mL). Cells were incubated with the XTT+PMS reagent for 3 hours at 37°C and absorbance was measured at 450 nm using a Molecular Devices i3x Spectramax plate reader.
In general terms: Formazan colour is commonly taken as a measure of viable cells.

Data set [8] deals with E.G7-Ova cells. Nature of the data set: B3Z T-cell hybridoma assay, annexin-V/propidium iodide. The class given is cell-based, mouse. Particulars: pretreatment 1 µmol/L 72 hours, E:T 2:1 (Fig. 2C).
Data set [9] relates to 27 cancer cell lines. Briefly: Proteasome activity in a panel of cancer cell lines (LLVY-R110). The settings on record: 1 µmol/L, 72 hours.
The target of another data set is T2, HDAC10 (Homo sapiens, UniProt Q969S8).
T2 construct: purchased Reaction Biology (Malvern, PA)
T2 sequence (Q969S8 1-669): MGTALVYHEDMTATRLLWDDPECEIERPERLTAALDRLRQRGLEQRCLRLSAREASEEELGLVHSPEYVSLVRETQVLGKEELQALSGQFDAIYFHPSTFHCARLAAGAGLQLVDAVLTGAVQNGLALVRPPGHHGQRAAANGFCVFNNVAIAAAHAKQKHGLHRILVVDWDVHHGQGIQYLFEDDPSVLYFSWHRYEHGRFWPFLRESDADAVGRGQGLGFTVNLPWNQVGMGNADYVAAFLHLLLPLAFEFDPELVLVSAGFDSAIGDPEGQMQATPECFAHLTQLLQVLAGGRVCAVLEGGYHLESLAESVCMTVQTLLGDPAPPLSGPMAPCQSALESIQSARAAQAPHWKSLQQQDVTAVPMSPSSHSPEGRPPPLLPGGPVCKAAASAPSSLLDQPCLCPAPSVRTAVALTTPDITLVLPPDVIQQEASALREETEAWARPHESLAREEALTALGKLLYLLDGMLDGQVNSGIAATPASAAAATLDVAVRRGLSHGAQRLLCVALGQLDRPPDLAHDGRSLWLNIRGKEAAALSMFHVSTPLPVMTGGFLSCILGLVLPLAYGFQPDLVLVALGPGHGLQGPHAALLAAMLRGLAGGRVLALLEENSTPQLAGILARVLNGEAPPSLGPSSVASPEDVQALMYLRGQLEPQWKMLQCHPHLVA
Nature of the data set: In vitro biochemical activity assay, HDAC10. Particulars: at higher concentrations.

The test system of data set [10] is 27 cancer cell lines. The settings on record: 1 µmol/L, 72 hours.
In a further data set the test system is MMCLs. Nature of the data set: pan-HLA-ABC presentation in MMCLs by flow cytometry. In kind it is cell-based, human. The settings on record: pan-HLA ABC antibody.

Usually IC50 stands for the concentration that inhibits the measured activity by half. High values mean weaker potency in that assay, low ones greater potency in that assay. Turning to `Cc1ccc(C(=O)Nc2ccc(S(=O)(=O)O)c3cc(S(=O)(=O)O)cc(S(=O)(=O)O)c23)cc1NC(=O)c1cccc(NC(=O)Nc2cccc(C(=O)Nc3cc(C(=O)Nc4ccc(S(=O)(=O)O)c5cc(S(=O)(=O)O)cc(S(=O)(=O)O)c45)ccc3C)c2)c1` [Suramin], the IC50 against SIRT2 turned out to be 24.3 µM.

For `CC(C)C[C@H](NC(=O)[C@H](Cc1ccccc1)NC(=O)c1cnccn1)B(O)O` [Bortezomib], in the data set with RPMI8226 cells [1], the formation of aggresomes result is recorded as “increased”. Also, the “SIINFEKL–MHC-I complex presentation (in words)” value in the data set with E.G7-Ova cells [2] is “reduced”. In the data set with RPMI-8226 cells (BTZ, 18 hours), the “global peak intensity of peptides (in words)” value is given as “slightly decreased”, the “number of peptides decreased by at least 20-fold” value was “seven” and the “number of peptides with 2-fold or greater decrease” value is listed as 1,707 peptides. Moreover, the “Fold-Decrease of proteasome ChT-like activity in the HTS” value in [3] is listed as 4 fold. In addition, the formation of autophagosomes result with RPMI8226 cells [4] is on record as “increased”.

In general, viability refers to the share of living cells, or the viability signal relative to a control. On to `CN1CCc2c(c3ccccc3n2Cc2ccc(C(=O)NO)cc2)C1` [Tubastatin-A], for which the “peak area of SIINFEKL compared with untreated” value in the data set with E.G7-Ova cells [5] is listed as 1.5 fold. In data set [6], the “increase in proteasome activity” value is not below 30%. The viability at 16 h, 1 µmol/L in [7] was not below 75%. Besides, the “increase in presentation of the class I molecule–SIINFEKL complex” value in the data set with E.G7-Ova cells [2] (normalized to untreated (Fig. 2A)) is given as “over 3 fold”. In the data set with E.G7-Ova cells [8], the “number of CD8neg/annexin-V+/propidium iodide+ E.G7-Ova cells after coculture with B3Z cells” value is given as “significantly increased”. In addition, the “global peak intensity of peptides” value with RPMI-8226 cells (1 µmol/L, 72 hours) is listed as “approximately 2 fold”. Besides, the “Number of Cell Lines: Increased Proteasome Activity” value in the data set with 27 cancer cell lines [9] is recorded as 17 cell lines. Also, the “Number of Cell Lines: Both Increased” value with 27 cancer cell lines [9] (proteasome activity and class I presentation) turned out to be 16 cell lines. In addition, the “effect on HDAC10 biochemical activity” value at HDAC10 is reported as “inhibited”. The “Number of Cell Lines: Increased Class I Presentation” value in the data set on 27 cancer cell lines [10] is given as 19 cell lines.

As to `COc1ccccc1CNC(=O)Cn1c(CCC(=O)O)nc2c(Cl)cccc2c1=O` [SGC-UBD253], the “pan-MHC-I presentation on MMCLs” value in the data set with MMCLs was “increased pan-MHC-I presentation in a dose-dependent manner”. In addition, in the data set with E.G7-Ova cells [2], the “SIINFEKL–MHC-I complex presentation (in words)” value was “increased”.

With `COc1ccccc1CN(C)C(=O)Cn1c(CCC(=O)O)nc2c(Cl)cccc2c1=O` [SGC-UBD253N], the “pan-MHC-I presentation on MMCLs” value in the data set with MMCLs is given as “did not increase”. In addition, the “SIINFEKL–MHC-I complex presentation (in words)” value in the data set on E.G7-Ova cells [2] is reported as “not changed”.

The values above are taken from paper PMC11188874, “HDAC6 Inhibition Releases HR23B to Activate Proteasomes, Expand the Tumor Immunopeptidome and Amplify T-cell Antimyeloma Activity” (Cancer Research Communications, 2024).
